{"source": "patent US12648946B2", "about": "“Combination of antibody-pyrrolobenzodiazepine derivative conjugate and PARP inhibitor” (DAIICHI SANKYO COMPANY, LIMITED, priority 2019, dated 2026)", "key": {"[1]": {"system": "human ovarian cancer cell line SK-OV-3", "assay": "Cell growth inhibition test (4)", "assay_type": "cell-based", "conditions": "for IC50: SK-OV-3, 144 h", "procedure": "Cells of the human ovarian cancer cell line SK-OV-3 purchased from ATCC (American Type Culture Collection) were used for evaluation. Cells were prepared with McCoy's 5A (Modified) Medium containing 10% fetal bovine serum (GE Healthcare) (Thermo Fisher Scientific; hereinafter, referred to as McCoy's SA medium) to reach 1.25×10^4 cells/mL, and 80 μL portions of them were added into a 96-well cell culture microplate. After addition of the cells, the cells were cultured at 37° C. and 5% CO2 overnight.\nOn the next day, 10 μL portions of pyrrolobenzodiazepine derivative A diluted with McCoy's 5A medium to 100 pM, 50 pM, 25 pM, 12.5 pM, 6.25 pM, 3.13 pM, 1.56 pM, or 0.78 pM were added to the microplate. To each well without pyrrolobenzodiazepine derivative A, 10 μL of McCoy's 5A medium was added. Further, 10 μL portions of talazoparib prepared with McCoy's 5A medium to reach 5 nM were added to the microplate. To each well without talazoparib, 10 μL of McCoy's 5A medium was added. Thereafter, the microplate was cultured at 37° C. and 5% CO2 for 6 days. After culturing, the microplate was taken out of the incubator, and left to stand at room temperature for 30 minutes. CellTiter-Glo Luminescent Cell Viability Assay (Promega Corporation) in an amount equivalent to that of the culture solution was added, and stirred using a plate mixer. The microplate was left to stand at room temperature for 10 minutes, and thereafter the amount of emission was measured by using a plate reader (PerkinElmer).\nCell survival rates in wells with derivative A were calculated by using the following formula.\n[formula] • a: Mean value of amounts of emission from wells with derivative A • b: Mean value of amounts of emission from wells with medium • IC50 values were calculated by using the following formula. […]\nCell survival rates in wells with derivative A added together with 5 nM talazoparib were calculated by using the following formula. […]"}, "[2]": {"system": "human pharyngeal cancer cell line FaDu", "assay": "Antitumor test (3), subcutaneous xenograft", "assay_type": "in vivo, mouse", "conditions": "single administration", "procedure": "Mouse: Five- to six-week-old female BALB/c nude mice (Charles River Laboratories Japan, Inc.) were subjected to experiment. Assay and calculation formula: In all of the studies, the major axis and minor axis of a tumor were measured twice a week by using an electronic digital caliper ([…] Corp.), and the tumor volume (mm^3) was calculated. The calculation formula is as shown below. [formula] Each of the anti-CLDN6 antibody-drug conjugate ADC1, the anti-HER2 antibody-drug conjugate ADC2, and the anti-TROP2 antibody-drug conjugate ADC3 was diluted with ABS buffer (10 mM acetate buffer (pH 5.5), 5% sorbitol), and a liquid volume of 10 mL/kg was intravenously administered into the tail vein. […] LLC)/Dulbecco's Phosphate-Buffered Saline, and then a liquid volume of 10 mL/kg was intraperitoneally administered. […] LLC)/Dulbecco's Phosphate-Buffered Saline, and then a liquid volume of 10 mL/kg was orally administered. Niraparib was dissolved in DMSO, diluted with 0.5% methylcellulose, and then a liquid volume of 10 mL/kg was orally administered. The described method is common to Examples 34 to 37. […]"}}, "note": "Read-outs that look alike come from different tables or passages of the source.", "data": [{"smiles": "COc1ccc(C2=CN3C(=O)c4cc(OC)c(OCCCCCOc5cc6c(cc5OC)C(=O)N5CC7(CC7)C[C@H]5C=N6)cc4NC[C@@H]3C2)cc1", "note": "[derivative A, (11a′S)-7′-Methoxy-8′-[(5-{[(11aS)-7-methoxy-2-(4-methoxyphenyl)-5-oxo-5,10,11,11a-tetrahydro-1H-pyrrolo[2,1-c][1,4]benzodiazepin-8-yl]oxy}pentyl)oxy]-1′,11a′-dihydro-5′H-spiro[cyclopropane-1,2′-pyrrolo[2,1-c][1,4]benzodiazepine]-5′-one]", "values": [{"measurement": "IC50", "setting": "[1]; read-out: IC50, growth-suppressing effect, added singly, SK-OV-3, 6 days", "value": 8.1, "unit": "pM"}, {"measurement": "IC50", "setting": "[1]; read-out: IC50, growth-suppressing effect, added together with 5 nM talazoparib, SK-OV-3, 6 days", "value": 4.6, "unit": "pM"}]}, {"smiles": "O=C(c1cc(Cc2n[nH]c(=O)c3ccccc23)ccc1F)N1CCN(C(=O)C2CC2)CC1", "note": "[olaparib, reference compound]", "values": [{"measurement": "tumor growth inhibition (TGI)", "setting": "[2]; olaparib 50 mg/kg i.p. for 5 days from Day 0, Day 25, FaDu", "value": 7, "unit": "%"}]}, {"smiles": "Cn1ncnc1[C@H]1c2n[nH]c(=O)c3cc(F)cc(c23)N[C@@H]1c1ccc(F)cc1", "note": "[talazoparib]", "values": [{"measurement": "inhibition at 0.005 µM", "setting": "[1]; 144 h, 5 nM talazoparib alone, SK-OV-3, 6 days", "value": "< 10", "unit": "%"}, {"measurement": "tumor growth inhibition (TGI)", "setting": "[2]; talazoparib 0.8 mg/kg oral for 5 days from Day 0, Day 25, FaDu", "value": 33, "unit": "%"}]}]}
